Measurements taken from the NIST ThermoML archive (doi:10.1007/s10765-008-0497-7).

Settings: Liquid

CCCCn1cc[n+](C)c1.F[P-](F)(F)(F)(F)F [1-butyl-3-methylimidazolium hexafluorophosphate]
298.15 K, Moving piston method
Settings	viscosity [mPa·s]
100 kPa	270.9
3400 kPa	289.7
6900 kPa	305.7
12100 kPa	329.2
17200 kPa	353.7
24700 kPa	396.3
25700 kPa	398.2
41400 kPa	473.8
50600 kPa	543.4

CCn1cc[n+](C)c1.O=S(=O)([N-]S(=O)(=O)C(F)(F)F)C(F)(F)F
viscosity [mPa·s]
Settings	298.15 K	323.15 K	343.15 K
100 kPa, Moving piston method	34.4	15.6	9.6
101.33 kPa, Cone and plate viscometry	34.1	–	–
101.33 kPa, Moving piston method	34.29	15.6	9.55
2820 kPa, Moving piston method	35	16.1	9.8
4190 kPa, Moving piston method	35.3	16.4	9.9
7360 kPa, Moving piston method	36.2	16.9	10.2
35560 kPa, Moving piston method	46.8	22	12.6
48760 kPa, Moving piston method	53.3	24.9	13.8
69300 kPa, Moving piston method	65	30.8	16
85200 kPa, Moving piston method	79.4	36.7	17.7
96500 kPa, Moving piston method	90	40.1	19.2
110550 kPa, Moving piston method	108.6	44.8	21.2
121530 kPa, Moving piston method	–	49.5	–
122430 kPa, Moving piston method	131.5	–	–
125530 kPa, Moving piston method	–	–	23.4

CCCCCCn1cc[n+](C)c1.F[B-](F)(F)F [1-hexyl-3-methylimidazolium tetrafluoroborate]
viscosity [mPa·s]
Settings	Cone and plate viscometry	Moving piston method
298.15 K, 100 kPa	–	202
298.15 K, 101.33 kPa	210.4	202.4
298.15 K, 2640 kPa	–	209
298.15 K, 4290 kPa	–	213
298.15 K, 6950 kPa	–	215
298.15 K, 34590 kPa	–	299
298.15 K, 48400 kPa	–	387
298.15 K, 68140 kPa	–	478
298.15 K, 82970 kPa	–	532
298.15 K, 96820 kPa	–	621
298.15 K, 108550 kPa	–	743
298.15 K, 117850 kPa	–	819
323.15 K, 100 kPa	–	58.5
323.15 K, 101.33 kPa	–	58.5
323.15 K, 2600 kPa	–	59.7
323.15 K, 4130 kPa	–	61
323.15 K, 6850 kPa	–	62
323.15 K, 34520 kPa	–	79.9
323.15 K, 48180 kPa	–	91.1
323.15 K, 68990 kPa	–	108.2
323.15 K, 82710 kPa	–	121.8
323.15 K, 96550 kPa	–	136
323.15 K, 110120 kPa	–	152.4
323.15 K, 121810 kPa	–	165
343.15 K, 100 kPa	–	27
343.15 K, 101.33 kPa	–	27
343.15 K, 3100 kPa	–	27.6
343.15 K, 4100 kPa	–	27.5
343.15 K, 7100 kPa	–	28
343.15 K, 35100 kPa	–	35.2
343.15 K, 48340 kPa	–	39.2
343.15 K, 68140 kPa	–	45
343.15 K, 83080 kPa	–	49.9
343.15 K, 96550 kPa	–	55.1
343.15 K, 110120 kPa	–	60.8
343.15 K, 121810 kPa	–	65

CCCCCCCCCCn1cc[n+](C)c1.O=S(=O)([N-]S(=O)(=O)C(F)(F)F)C(F)(F)F
viscosity [mPa·s]
Settings	298.15 K	323.15 K	343.15 K
100 kPa, Moving piston method	108.2	36.2	18.15
101.33 kPa, Cone and plate viscometry	111.2	–	–
101.33 kPa, Moving piston method	108.2	36.3	18.2
2950 kPa, Moving piston method	111.5	37.5	18.55
4270 kPa, Moving piston method	112.8	38.2	18.75
6900 kPa, Moving piston method	117.6	39.2	19.3
34600 kPa, Moving piston method	167.5	53.6	25.76
47960 kPa, Moving piston method	199	61.8	29.15
68870 kPa, Moving piston method	257	76	35.72
83290 kPa, Moving piston method	301.1	85.9	40.47
93030 kPa, Moving piston method	336.7	94.3	44.56
109800 kPa, Moving piston method	402.7	110.8	51.26
122570 kPa, Moving piston method	459.8	122.6	56.74

CCCCCCn1cc[n+](C)c1.F[P-](F)(F)(F)(F)F [1-hexyl-3-methylimidazolium hexafluorophosphate]
viscosity [mPa·s]
Settings	298.15 K	323.15 K	343.15 K
100 kPa, Moving piston method	481	121.4	48.1
101.33 kPa, Cone and plate viscometry	489.5	–	–
101.33 kPa, Moving piston method	481.4	121.4	48.1
2990 kPa, Moving piston method	523	–	–
4000 kPa, Moving piston method	530	127.1	50.3
7000 kPa, Moving piston method	556	–	–
7600 kPa, Moving piston method	–	132.4	52
22000 kPa, Moving piston method	701	–	–
25800 kPa, Moving piston method	–	164	62.6
35000 kPa, Moving piston method	833	182.6	68.6
42100 kPa, Moving piston method	920	–	–
50000 kPa, Moving piston method	1023	–	–
50600 kPa, Moving piston method	–	218.9	80.5
60300 kPa, Moving piston method	1176	241.7	88.1
76000 kPa, Moving piston method	–	280.8	102.5
93000 kPa, Moving piston method	–	334.2	118.7
101000 kPa, Moving piston method	–	364.2	127.1
126000 kPa, Moving piston method	–	483.1	157.8

CCCCCC[n+]1ccn(C)c1.O=S(=O)([N-]S(=O)(=O)C(F)(F)F)C(F)(F)F
viscosity [mPa·s]
Settings	298.15 K	323.15 K	343.15 K
100 kPa, Moving piston method	70.96	24.9	14.07
101.33 kPa, Cone and plate viscometry	71.5	–	–
101.33 kPa, Moving piston method	71	24.9	14.1
2990 kPa, Moving piston method	71.04	25.81	14.12
4000 kPa, Moving piston method	71.38	25.98	14.22
7000 kPa, Moving piston method	73.71	26.87	14.6
35000 kPa, Moving piston method	103.4	35.96	18.62
50000 kPa, Moving piston method	122.2	41.57	21.1
70000 kPa, Moving piston method	152.2	50.43	25.17
83000 kPa, Moving piston method	173.2	56.96	28.12
93000 kPa, Moving piston method	196.3	62.11	30.42
110000 kPa, Moving piston method	237.6	71.6	34.65
124000 kPa, Moving piston method	275.7	80.46	38.34
